19 compounds from ChEMBL document CHEMBL1145588, “Design, synthesis, and structure-activity relationships of piperidine and dehydropiperidine carboxylic acids as novel, potent dual PPARalpha/gamma agonists” (Bioorg Med Chem Lett, 2008) can be followed below.

For orientation: IC50 means the point on the concentration scale where inhibition reaches its midpoint. Higher therefore signals a need for much substance. In general, EC50 refers to the midpoint of the concentration-response curve.

SMILES strings stand for the structures.

The target of experiment [1] is Peroxisome proliferator-activated receptor alpha (Homo sapiens) (UniProt Q07869). Kind of experiment: Binding affinity at human PPARalpha by fluorescence polarization. In general terms: In fluorescence polarisation assays a small probe gives low polarisation when free and higher when bound to something large.
The target of experiment [2] is T1, Peroxisome proliferator-activated receptor gamma (Homo sapiens, UniProt P37231).
T1 sequence (P37231 whole entry): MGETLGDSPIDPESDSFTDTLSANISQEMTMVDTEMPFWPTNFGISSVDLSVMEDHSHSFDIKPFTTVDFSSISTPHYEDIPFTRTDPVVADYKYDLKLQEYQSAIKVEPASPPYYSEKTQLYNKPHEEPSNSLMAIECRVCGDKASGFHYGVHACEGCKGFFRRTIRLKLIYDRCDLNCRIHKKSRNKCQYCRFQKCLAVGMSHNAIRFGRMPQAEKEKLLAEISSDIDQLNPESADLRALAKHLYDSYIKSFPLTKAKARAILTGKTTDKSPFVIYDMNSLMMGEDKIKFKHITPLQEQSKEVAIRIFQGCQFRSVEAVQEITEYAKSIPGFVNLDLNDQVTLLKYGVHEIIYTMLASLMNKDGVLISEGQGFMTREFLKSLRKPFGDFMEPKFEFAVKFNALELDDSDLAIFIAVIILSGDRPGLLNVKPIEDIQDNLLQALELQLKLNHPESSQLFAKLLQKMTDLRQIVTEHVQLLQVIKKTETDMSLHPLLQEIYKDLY
Kind of experiment: Agonist activity at human PPARgamma expressed in HEK293 cells assessed as luciferase activity by GAL4 transactivation assay. In kind it is functional, cell-based.

Experiment [3] addresses T2, Peroxisome proliferator-activated receptor alpha (Homo sapiens, UniProt Q07869).
T2 sequence (Q07869 whole entry): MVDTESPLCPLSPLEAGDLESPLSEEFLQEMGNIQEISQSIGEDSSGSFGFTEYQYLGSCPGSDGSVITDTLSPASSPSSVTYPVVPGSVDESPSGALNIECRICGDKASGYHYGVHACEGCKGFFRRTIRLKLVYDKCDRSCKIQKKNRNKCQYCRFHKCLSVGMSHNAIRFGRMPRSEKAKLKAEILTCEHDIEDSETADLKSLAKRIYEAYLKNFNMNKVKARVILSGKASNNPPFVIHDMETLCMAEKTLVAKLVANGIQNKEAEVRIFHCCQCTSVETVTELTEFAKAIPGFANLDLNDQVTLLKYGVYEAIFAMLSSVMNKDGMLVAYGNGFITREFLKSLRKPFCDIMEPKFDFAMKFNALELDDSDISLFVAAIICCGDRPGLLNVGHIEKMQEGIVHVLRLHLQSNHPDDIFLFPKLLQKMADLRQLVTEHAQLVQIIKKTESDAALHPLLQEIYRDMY
Kind of experiment: Agonist activity at human PPARalpha expressed in HEK293 cells assessed as luciferase activity by GAL4 transactivation assay. It counts as functional, cell-based.

Experiment [4] concerns the target Peroxisome proliferator-activated receptor gamma (Homo sapiens) (UniProt P37231). The experiment in a line: Binding affinity at human PPARgamma by fluorescence polarization.

Consider `Cc1oc(-c2ccccc2)nc1CCOc1ccc(C2=C(C(=O)O)CCN(C(=O)OCC(C)C)C2)cc1`, for which the IC50 is > 27300 nM in experiment [1] and 7400 nM in experiment [4]. The EC50 in experiment [2] is 4650 nM; in experiment [3], 5570 nM.

As to `Cc1oc(-c2ccccc2)nc1CCOc1cccc(CC2=C(C(=O)O)CCN(c3nccc(C(F)(F)F)n3)C2)c1`, the figures for the IC50 in experiment [1] and in experiment [4] were 1330 nM and 1380 nM, respectively. Besides, the concentration for a half-maximal effect (EC50) in experiment [2] is 644 nM; in experiment [3], 89 nM.

Take `Cc1oc(-c2ccccc2)nc1CCOc1cccc(C2=C(CC(=O)O)CCN(C(=O)Oc3ccccc3)C2)c1`: the IC50 in experiment [1] was determined as 16 nM; in experiment [4] it was 34 nM. Further, the EC50 in experiment [2] stood at 46 nM; in experiment [3] it was 4 nM.

On to `Cc1oc(-c2ccccc2)nc1CCOc1ccc(C[C@@H]2CN(c3nccc(C(F)(F)F)n3)C[C@@H]2C(=O)O)cc1`, for which the EC50 in experiment [2] was found to be 7 nM; in experiment [3], 165 nM.

As to `Cc1oc(-c2ccccc2)nc1CCOc1cccc(C2=C(C(=O)O)CCN(Cc3ccccc3)C2)c1`, the IC50 in experiment [1] and in experiment [4] was > 27500 nM each time. Further, the concentration for a half-maximal effect (EC50) in experiment [2] and in experiment [3] was > 7500 nM in each case.

`CCCOC(=O)N1CCC(C(=O)O)=C(Cc2cccc(OCCc3nc(-c4ccccc4)oc3C)c2)C1`: the EC50 in experiment [2] worked out at 180 nM.

As to `Cc1oc(-c2ccccc2)nc1CCOc1ccc(CC2=C(C(=O)O)CCN(C(=O)OCC(C)C)C2)cc1`, the IC50 came out at 1170 nM in experiment [1] and 3040 nM in experiment [4]. The EC50 was 1120 nM in experiment [2] and 28 nM in experiment [3].

Regarding `Cc1oc(-c2ccccc2)nc1CCOc1ccc(CCC2=C(C(=O)O)CCN(C(=O)OCC(C)C)C2)cc1`, the IC50 stood at 255 nM in experiment [1] and 110 nM in experiment [4]. The EC50 was 74 nM in experiment [2] and 56 nM in experiment [3].

`Cc1oc(-c2ccccc2)nc1CCOc1cccc(CC2=C(C(=O)O)CCN(C(=O)OCc3ccccc3)C2)c1`: the IC50 was > 15000 nM in experiment [1] and 4730 nM in experiment [4]. Further, the concentration for a half-maximal effect (EC50) was > 3500 nM in experiment [2] and 4920 nM in experiment [3].

As to `Cc1oc(-c2ccccc2)nc1CCOc1cccc(C2=C(CC(=O)O)CCN(C(=O)OCC(C)C)C2)c1`, the IC50 is 130 nM in experiment [1] and 49 nM in experiment [4]. Moreover, the half-maximal effective concentration (EC50) in experiment [2] is 18 nM; in experiment [3], 6 nM.

As for `Cc1oc(-c2ccccc2)nc1CCOc1cccc(C2CN(C(=O)OCC(C)C)CCC2CC(=O)O)c1` (racemic), the results for the half-inhibitory concentration (IC50) in experiment [1] and in experiment [4] were > 15000 nM and 3090 nM, respectively. Moreover, the 50% effective concentration (EC50) in experiment [2] was 490 nM; in experiment [3] it was 580 nM.

Take `Cc1oc(-c2ccccc2)nc1CCOc1cccc(CC2=CN(c3nccc(C(F)(F)F)n3)CCC2C(=O)O)c1` (racemic): the values for the IC50 in experiment [1] and in experiment [4] were 1080 nM and 287 nM, respectively. Further, the EC50 in experiment [2] came out at 14 nM; in experiment [3], 23 nM.

As for `Cc1oc(-c2ccccc2)nc1CCOc1ccc(CCC2CN(C(=O)OCC(C)C)CCC2C(=O)O)cc1` (racemic), the half-inhibitory concentration (IC50) is 711 nM in experiment [1] and 450 nM in experiment [4]. Moreover, the values for the EC50 in experiment [2] and in experiment [3] were 263 nM and 44 nM, respectively.

Turning to `Cc1oc(-c2ccccc2)nc1CCOc1ccc(CC2CN(C(=O)OCC(C)C)CCC2C(=O)O)cc1` (racemic), the IC50 was found to be 215 nM in experiment [1] and 1250 nM in experiment [4]. The EC50 in experiment [2] worked out at 257 nM; in experiment [3], 5 nM.

On to `Cc1oc(-c2ccccc2)nc1CCOc1cccc(CC2CN(C(=O)OCC(C)C)CCC2C(=O)O)c1` (racemic), for which the IC50 in experiment [1] was determined as 1370 nM; in experiment [4] it was 6030 nM. Further, the EC50 in experiment [2] was 1070 nM; in experiment [3], 18 nM.

Turning to `Cc1oc(-c2ccccc2)nc1CCOc1cccc(C2CN(C(=O)OCC(C)C)CCC2C(=O)O)c1` (racemic), the IC50 was 7620 nM in experiment [1] and > 27300 nM in experiment [4]. Moreover, the EC50 is > 7500 nM in experiment [2] and 209 nM in experiment [3].

As for `Cc1oc(-c2ccccc2)nc1CCOc1cccc(CC2=CN(C(=O)OCc3ccccc3)CCC2C(=O)O)c1` (racemic), the IC50 in experiment [1] turned out to be 654 nM; in experiment [4], 133 nM. Also, the EC50 in experiment [2] was 24 nM; in experiment [3] it was 16 nM.

For the compound `Cc1oc(-c2ccccc2)nc1CCOc1cccc(C2CN(C(=O)Oc3ccccc3)CCC2CC(=O)O)c1` (racemic), the values for the IC50 in experiment [1] and in experiment [4] were 8120 nM and 7690 nM, respectively. The 50% effective concentration (EC50) amounted to 1290 nM in experiment [2] and 170 nM in experiment [3].

As for `COc1ccc(OC(=O)N(CC(=O)O)Cc2ccc(OCCc3nc(-c4ccccc4)oc3C)cc2)cc1` [MURAGLITAZAR], the concentration for a half-maximal effect (EC50) in experiment [3] worked out at 1410 nM.
